According to ChEMBL document CHEMBL5244230, “Artemisinin-derived hybrids and their anticancer activity” (Eur J Med Chem, 2020):

These compounds were tested on MDA-MB-231 (assay: Antiproliferative activity against human MDA-MB-231 cells assessed as reduction in cell viability measured for 72 hrs by MTT assay). Settings: MDA-MB-231, 72 h.
Assay type: functional, cell-based

| SMILES | IC50 [nM] |
| --- | --- |
| C[C@H]1[C@H](NC(=O)COCc2ccc(C(=O)/C=C/c3ccc(Cl)cc3F)cc2)O[C@@H]2O[C@@]3(C)CC[C@H]4[C@H](C)CC[C@@H]1[C@@]24OO3 | 100 |
| C[C@H]1[C@H](NC(=O)COCc2ccc(C(=O)/C=C/c3ccc(F)cc3)cc2)O[C@@H]2O[C@@]3(C)CC[C@H]4[C@H](C)CC[C@@H]1[C@@]24OO3 | 100 |
| C[C@H]1[C@@H](NC(=O)COCc2ccc(/C=C/C(=O)c3ccc(Cl)cc3)cc2)O[C@@H]2O[C@@]3(C)CC[C@H]4[C@H](C)CC[C@@H]1[C@@]24OO3 | 1700 |
| C[C@H]1[C@H](NC(=O)COCc2ccc(C(=O)/C=C/c3ccc(OC(F)(F)F)cc3)cc2)O[C@@H]2O[C@@]3(C)CC[C@H]4[C@H](C)CC[C@@H]1[C@@]24OO3 | 100 |
| C[C@H]1[C@@H](NC(=O)COCc2ccc(C(=O)/C=C/c3ccc(S(C)(=O)=O)cc3)cc2)O[C@@H]2O[C@@]3(C)CC[C@H]4[C@H](C)CC[C@@H]1[C@@]24OO3 | 90 |
| C[C@H]1[C@@H](NC(=O)COCc2ccc(C(=O)/C=C/c3ccc(Cl)cc3)cc2)O[C@@H]2O[C@@]3(C)CC[C@H]4[C@H](C)CC[C@@H]1[C@@]24OO3 | 90 |
| C[C@H]1[C@H](NC(=O)COCc2ccc(C(=O)/C=C/c3c(Cl)cccc3Cl)cc2)O[C@@H]2O[C@@]3(C)CC[C@H]4[C@H](C)CC[C@@H]1[C@@]24OO3 | 100 |
| C[C@H]1[C@@H](NC(=O)COCc2ccc(C(=O)/C=C/c3cccc(OC(F)(F)F)c3)cc2)O[C@@H]2O[C@@]3(C)CC[C@H]4[C@H](C)CC[C@@H]1[C@@]24OO3 | 90 |

Each compound was assayed on A549 (assay: Antiproliferative activity against human A549 cells assessed as reduction in cell viability measured for 72 hrs by MTT assay). Settings: A549, 72 h.
Assay type: functional, cell-based

| SMILES | IC50 [nM] |
| --- | --- |
| C[C@H]1[C@H](NC(=O)COCc2ccc(C(=O)/C=C/c3ccc(Cl)cc3F)cc2)O[C@@H]2O[C@@]3(C)CC[C@H]4[C@H](C)CC[C@@H]1[C@@]24OO3 | 100 |
| C[C@H]1[C@H](NC(=O)COCc2ccc(C(=O)/C=C/c3ccc(F)cc3)cc2)O[C@@H]2O[C@@]3(C)CC[C@H]4[C@H](C)CC[C@@H]1[C@@]24OO3 | 100 |
| C[C@H]1[C@@H](NC(=O)COCc2ccc(/C=C/C(=O)c3ccc(Cl)cc3)cc2)O[C@@H]2O[C@@]3(C)CC[C@H]4[C@H](C)CC[C@@H]1[C@@]24OO3 | 1700 |
| C[C@H]1[C@H](NC(=O)COCc2ccc(C(=O)/C=C/c3ccc(OC(F)(F)F)cc3)cc2)O[C@@H]2O[C@@]3(C)CC[C@H]4[C@H](C)CC[C@@H]1[C@@]24OO3 | 100 |
| C[C@H]1[C@@H](NC(=O)COCc2ccc(C(=O)/C=C/c3ccc(S(C)(=O)=O)cc3)cc2)O[C@@H]2O[C@@]3(C)CC[C@H]4[C@H](C)CC[C@@H]1[C@@]24OO3 | 90 |
| C[C@H]1[C@@H](NC(=O)COCc2ccc(C(=O)/C=C/c3ccc(Cl)cc3)cc2)O[C@@H]2O[C@@]3(C)CC[C@H]4[C@H](C)CC[C@@H]1[C@@]24OO3 | 90 |
| C[C@H]1[C@H](NC(=O)COCc2ccc(C(=O)/C=C/c3c(Cl)cccc3Cl)cc2)O[C@@H]2O[C@@]3(C)CC[C@H]4[C@H](C)CC[C@@H]1[C@@]24OO3 | 100 |
| C[C@H]1[C@@H](NC(=O)COCc2ccc(C(=O)/C=C/c3cccc(OC(F)(F)F)c3)cc2)O[C@@H]2O[C@@]3(C)CC[C@H]4[C@H](C)CC[C@@H]1[C@@]24OO3 | 90 |

The compounds below were run on NCI-H460 (assay: Antiproliferative activity against human NCI-H460 cells assessed as reduction in cell viability measured for 72 hrs by MTT assay). Settings: NCI-H460, 72 h.
Assay type: functional, cell-based

| SMILES | IC50 [nM] |
| --- | --- |
| C[C@H]1[C@H](NC(=O)COCc2ccc(C(=O)/C=C/c3ccc(Cl)cc3F)cc2)O[C@@H]2O[C@@]3(C)CC[C@H]4[C@H](C)CC[C@@H]1[C@@]24OO3 | 100 |
| C[C@H]1[C@H](NC(=O)COCc2ccc(C(=O)/C=C/c3ccc(F)cc3)cc2)O[C@@H]2O[C@@]3(C)CC[C@H]4[C@H](C)CC[C@@H]1[C@@]24OO3 | 100 |
| C[C@H]1[C@@H](NC(=O)COCc2ccc(/C=C/C(=O)c3ccc(Cl)cc3)cc2)O[C@@H]2O[C@@]3(C)CC[C@H]4[C@H](C)CC[C@@H]1[C@@]24OO3 | 1700 |
| C[C@H]1[C@H](NC(=O)COCc2ccc(C(=O)/C=C/c3ccc(OC(F)(F)F)cc3)cc2)O[C@@H]2O[C@@]3(C)CC[C@H]4[C@H](C)CC[C@@H]1[C@@]24OO3 | 100 |
| C[C@H]1[C@@H](NC(=O)COCc2ccc(C(=O)/C=C/c3ccc(S(C)(=O)=O)cc3)cc2)O[C@@H]2O[C@@]3(C)CC[C@H]4[C@H](C)CC[C@@H]1[C@@]24OO3 | 90 |
| C[C@H]1[C@@H](NC(=O)COCc2ccc(C(=O)/C=C/c3ccc(Cl)cc3)cc2)O[C@@H]2O[C@@]3(C)CC[C@H]4[C@H](C)CC[C@@H]1[C@@]24OO3 | 90 |
| C[C@H]1[C@H](NC(=O)COCc2ccc(C(=O)/C=C/c3c(Cl)cccc3Cl)cc2)O[C@@H]2O[C@@]3(C)CC[C@H]4[C@H](C)CC[C@@H]1[C@@]24OO3 | 100 |
| C[C@H]1[C@@H](NC(=O)COCc2ccc(C(=O)/C=C/c3cccc(OC(F)(F)F)c3)cc2)O[C@@H]2O[C@@]3(C)CC[C@H]4[C@H](C)CC[C@@H]1[C@@]24OO3 | 90 |

These compounds were tested on HeLa (assay: Antiproliferative activity against human HeLa cells assessed as reduction in cell viability measured for 72 hrs by MTT assay). Settings: not given.
Assay type: functional, cell-based

| SMILES | IC50 [nM] |
| --- | --- |
| C[C@H]1[C@H](NC(=O)COCc2ccc(C(=O)/C=C/c3ccc(Cl)cc3F)cc2)O[C@@H]2O[C@@]3(C)CC[C@H]4[C@H](C)CC[C@@H]1[C@@]24OO3 | 100 |
| C[C@H]1[C@H](NC(=O)COCc2ccc(C(=O)/C=C/c3ccc(F)cc3)cc2)O[C@@H]2O[C@@]3(C)CC[C@H]4[C@H](C)CC[C@@H]1[C@@]24OO3 | 100 |
| C[C@H]1[C@@H](NC(=O)COCc2ccc(/C=C/C(=O)c3ccc(Cl)cc3)cc2)O[C@@H]2O[C@@]3(C)CC[C@H]4[C@H](C)CC[C@@H]1[C@@]24OO3 | 1700 |
| C[C@H]1[C@H](NC(=O)COCc2ccc(C(=O)/C=C/c3ccc(OC(F)(F)F)cc3)cc2)O[C@@H]2O[C@@]3(C)CC[C@H]4[C@H](C)CC[C@@H]1[C@@]24OO3 | 100 |
| C[C@H]1[C@@H](NC(=O)COCc2ccc(C(=O)/C=C/c3ccc(S(C)(=O)=O)cc3)cc2)O[C@@H]2O[C@@]3(C)CC[C@H]4[C@H](C)CC[C@@H]1[C@@]24OO3 | 90 |
| C[C@H]1[C@@H](NC(=O)COCc2ccc(C(=O)/C=C/c3ccc(Cl)cc3)cc2)O[C@@H]2O[C@@]3(C)CC[C@H]4[C@H](C)CC[C@@H]1[C@@]24OO3 | 90 |
| C[C@H]1[C@H](NC(=O)COCc2ccc(C(=O)/C=C/c3c(Cl)cccc3Cl)cc2)O[C@@H]2O[C@@]3(C)CC[C@H]4[C@H](C)CC[C@@H]1[C@@]24OO3 | 100 |
| C[C@H]1[C@@H](NC(=O)COCc2ccc(C(=O)/C=C/c3cccc(OC(F)(F)F)c3)cc2)O[C@@H]2O[C@@]3(C)CC[C@H]4[C@H](C)CC[C@@H]1[C@@]24OO3 | 90 |

What follows are compounds tested on HT-29 (assay: Antiproliferative activity against human HT-29 cells assessed as reduction in cell viability measured for 72 hrs by MTT assay). Settings: HT-29, 72 h.
Assay type: functional, cell-based

| SMILES | IC50 [nM] |
| --- | --- |
| C[C@H]1[C@H](NC(=O)COCc2ccc(C(=O)/C=C/c3ccc(Cl)cc3F)cc2)O[C@@H]2O[C@@]3(C)CC[C@H]4[C@H](C)CC[C@@H]1[C@@]24OO3 | 100 |
| C[C@H]1[C@H](NC(=O)COCc2ccc(C(=O)/C=C/c3ccc(F)cc3)cc2)O[C@@H]2O[C@@]3(C)CC[C@H]4[C@H](C)CC[C@@H]1[C@@]24OO3 | 100 |
| C[C@H]1[C@@H](NC(=O)COCc2ccc(/C=C/C(=O)c3ccc(Cl)cc3)cc2)O[C@@H]2O[C@@]3(C)CC[C@H]4[C@H](C)CC[C@@H]1[C@@]24OO3 | 1700 |
| C[C@H]1[C@H](NC(=O)COCc2ccc(C(=O)/C=C/c3ccc(OC(F)(F)F)cc3)cc2)O[C@@H]2O[C@@]3(C)CC[C@H]4[C@H](C)CC[C@@H]1[C@@]24OO3 | 100 |
| C[C@H]1[C@@H](NC(=O)COCc2ccc(C(=O)/C=C/c3ccc(S(C)(=O)=O)cc3)cc2)O[C@@H]2O[C@@]3(C)CC[C@H]4[C@H](C)CC[C@@H]1[C@@]24OO3 | 90 |
| C[C@H]1[C@@H](NC(=O)COCc2ccc(C(=O)/C=C/c3ccc(Cl)cc3)cc2)O[C@@H]2O[C@@]3(C)CC[C@H]4[C@H](C)CC[C@@H]1[C@@]24OO3 | 90 |
| C[C@H]1[C@H](NC(=O)COCc2ccc(C(=O)/C=C/c3c(Cl)cccc3Cl)cc2)O[C@@H]2O[C@@]3(C)CC[C@H]4[C@H](C)CC[C@@H]1[C@@]24OO3 | 100 |
| C[C@H]1[C@@H](NC(=O)COCc2ccc(C(=O)/C=C/c3cccc(OC(F)(F)F)c3)cc2)O[C@@H]2O[C@@]3(C)CC[C@H]4[C@H](C)CC[C@@H]1[C@@]24OO3 | 90 |
